Article PMC6934184, “Selective DNA-PKcs inhibition extends the therapeutic index of localized radiotherapy and chemotherapy” (The Journal of Clinical Investigation, 2019)

Molecular target: T1, MAP3K10 (MLK2) (Homo sapiens, UniProt Q02779)
T1 construct: purchased Thermo Fisher Scientific (Life Technologies) SelectScreen
Assay: SelectScreen LanthaScreen
Assay type: binding
Conditions: read-out: % displacement
Outline: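 SelectScreen broad panel; activity (Z'LYTE, Adapta) plus binding formats. ATP: Km app for CSF1R Z'LYTE; 10 for CAMK1 Adapta. Readout = % per kinase.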

T1 sequence (Q02779 whole entry): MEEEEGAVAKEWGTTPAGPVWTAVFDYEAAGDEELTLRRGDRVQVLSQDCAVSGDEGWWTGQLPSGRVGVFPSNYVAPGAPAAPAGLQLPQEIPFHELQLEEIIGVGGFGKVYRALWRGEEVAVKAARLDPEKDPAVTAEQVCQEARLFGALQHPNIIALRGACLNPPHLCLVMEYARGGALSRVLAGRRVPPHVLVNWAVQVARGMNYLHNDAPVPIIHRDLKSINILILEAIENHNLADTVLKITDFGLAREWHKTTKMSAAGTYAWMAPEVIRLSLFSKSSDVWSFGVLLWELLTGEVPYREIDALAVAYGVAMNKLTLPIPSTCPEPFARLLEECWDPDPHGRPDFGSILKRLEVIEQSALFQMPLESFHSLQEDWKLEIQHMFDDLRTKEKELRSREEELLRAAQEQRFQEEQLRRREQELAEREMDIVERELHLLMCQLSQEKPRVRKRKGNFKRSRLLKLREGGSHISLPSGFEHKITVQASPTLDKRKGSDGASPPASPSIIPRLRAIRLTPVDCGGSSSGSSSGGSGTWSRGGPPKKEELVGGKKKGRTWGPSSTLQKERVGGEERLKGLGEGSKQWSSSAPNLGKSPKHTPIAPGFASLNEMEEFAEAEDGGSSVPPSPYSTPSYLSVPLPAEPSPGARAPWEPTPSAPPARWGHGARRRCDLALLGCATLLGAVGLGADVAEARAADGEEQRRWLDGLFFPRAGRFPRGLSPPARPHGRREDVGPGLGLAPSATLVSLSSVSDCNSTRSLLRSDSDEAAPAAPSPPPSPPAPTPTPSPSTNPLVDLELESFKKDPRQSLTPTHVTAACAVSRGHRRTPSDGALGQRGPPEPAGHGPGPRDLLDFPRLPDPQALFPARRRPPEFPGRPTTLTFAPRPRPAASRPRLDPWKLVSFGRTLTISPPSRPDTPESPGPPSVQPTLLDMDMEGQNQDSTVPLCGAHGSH

CN(C(=O)CN1CCOCC1)c1ccc2sc3c(-c4cccc5c(=O)cc(N6CC7CCC(C6)O7)oc45)cccc3c2c1 [NU5455]
inhibition at 1 µM: 1.5%
